Test results: ChEMBL document CHEMBL1201862, “PubChem BioAssay data set” (2004)
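In this assay, cells in 96-well plates receive the compound at five concentrations for 48 hours. Endpoints are linearly interpolated between the surrounding concentrations. GI50 is the concentration that inhibits growth by half.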 Calls of active or inactive are those of the source. Rule as the data show it: active = GI50 up to about 1.1 µM and inactive = higher.

How the values were obtained:
Assay in all cases: growth of human tumour cells (NCI), 48 h
[1] = test system: HCC 2998
[2] = test system: TK-10
[3] = test system: SNB-78
[4] = test system: SF-295
[5] = test system: UO-31
[6] = test system: RXF 393
[7] = test system: HT-29
[8] = test system: HCT-15
[9] = test system: OVCAR-4
[10] = test system: IGROV-1
[11] = test system: Malme-3M
[12] = test system: MOLT-4
[13] = test system: HOP-62
[14] = test system: A498
[15] = test system: M14
[16] = test system: OVCAR-8

**Q.** Which results are given for `COc1cc(C)c(O)c(C(=O)O)c1`?
**A.** GI50 [1]: > 100 µM (inactive); GI50 [2]: > 100 µM (inactive); GI50 [3]: > 100 µM (inactive); GI50 [4]: > 100 µM (inactive); GI50 [5]: > 100 µM (inactive); GI50 [6]: > 100 µM (inactive); GI50 [7]: > 100 µM (inactive); GI50 [8]: > 100 µM; GI50 [9]: > 100 µM (inactive); GI50 [10]: > 100 µM (inactive); GI50 [11]: > 100 µM (inactive); GI50 [12]: > 100 µM (inactive); GI50 [13]: > 100 µM (inactive); GI50 [14]: > 100 µM (inactive); GI50 [15]: > 100 µM (inactive); GI50 [16]: > 100 µM (inactive)

**Q.** For `Cc1nc(N)sc1C(=O)/C=C\c1ccc2c(c1)OCO2`, which GI50 [1] is on record?
**A.** > 100 µM (inactive)

**Q.** And the GI50 [2]?
**A.** > 100 µM (inactive)

**Q.** What about the GI50 [3] of the same compound?
**A.** > 100 µM (inactive)

**Q.** What about the GI50 [4] of the same compound?
**A.** > 100 µM (inactive)

**Q.** What about the GI50 [5] of the same compound?
**A.** > 100 µM (inactive)

**Q.** What about the GI50 [6] of the same compound?
**A.** > 100 µM (inactive)

**Q.** What about the GI50 [7] of the same compound?
**A.** > 100 µM (inactive)

**Q.** What about the GI50 [8] of the same compound?
**A.** > 100 µM

**Q.** What about the GI50 [9] of the same compound?
**A.** > 100 µM (inactive)

**Q.** What about the GI50 [10] of the same compound?
**A.** > 100 µM (inactive)

**Q.** And the GI50 [11]?
**A.** > 100 µM (inactive)

**Q.** And the GI50 [12]?
**A.** > 100 µM (inactive)

**Q.** What about the GI50 [13] of the same compound?
**A.** > 100 µM (inactive)

**Q.** What about the GI50 [14] of the same compound?
**A.** > 100 µM (inactive)

**Q.** What about the GI50 [15] of the same compound?
**A.** > 100 µM (inactive)

**Q.** What about the GI50 [16] of the same compound?
**A.** > 100 µM (inactive)

**Q.** What does the source list for `C=CC1(NS(=O)(=O)c2ccc(C)cc2)CCC(C(C)(C)C)CC1` (centres undefined)?
**A.** GI50 [1]: > 100 µM (inactive); GI50 [2]: 88.5 µM (inactive); GI50 [3]: 30.7 µM (inactive); GI50 [5]: > 100 µM (inactive); GI50 [6]: 8.97 µM (inactive); GI50 [8]: > 100 µM; GI50 [9]: 91.6 µM (inactive); GI50 [10]: 76.2 µM (inactive); GI50 [11]: 82.2 µM (inactive); GI50 [12]: > 100 µM (inactive); GI50 [13]: 57.7 µM (inactive); GI50 [14]: > 100 µM (inactive); GI50 [15]: 98.6 µM (inactive); GI50 [16]: 52.8 µM (inactive)

**Q.** What does the source list for `NC(=O)CC(N/C=C1/N=C(c2ccccc2)OC1=O)C(=O)O` (centres undefined)?
**A.** GI50 [1]: > 100 µM (inactive); GI50 [2]: > 100 µM (inactive); GI50 [3]: > 100 µM (inactive); GI50 [4]: > 100 µM (inactive); GI50 [5]: > 100 µM (inactive); GI50 [6]: > 100 µM (inactive); GI50 [7]: > 100 µM (inactive); GI50 [8]: > 100 µM; GI50 [9]: > 100 µM (inactive); GI50 [10]: > 100 µM (inactive); GI50 [11]: > 100 µM (inactive); GI50 [13]: > 100 µM (inactive); GI50 [14]: > 100 µM (inactive); GI50 [15]: > 100 µM (inactive); GI50 [16]: > 100 µM (inactive)

**Q.** For `CN(CCCCN)c1ccc2c(=O)[nH][nH]c(=O)c2c1`, which GI50 [1] is on record?
**A.** > 100 µM (inactive)

**Q.** What about the GI50 [2] of the same compound?
**A.** > 100 µM (inactive)

**Q.** And the GI50 [3]?
**A.** > 100 µM (inactive)

**Q.** And the GI50 [4]?
**A.** > 100 µM (inactive)

**Q.** And the GI50 [5]?
**A.** > 100 µM (inactive)

**Q.** What about the GI50 [6] of the same compound?
**A.** > 100 µM (inactive)

**Q.** What about the GI50 [7] of the same compound?
**A.** > 100 µM (inactive)

**Q.** And the GI50 [8]?
**A.** > 100 µM

**Q.** And the GI50 [9]?
**A.** > 100 µM (inactive)

**Q.** And the GI50 [10]?
**A.** > 44.9 µM (inactive)

**Q.** And the GI50 [11]?
**A.** > 100 µM (inactive)

**Q.** What about the GI50 [12] of the same compound?
**A.** > 100 µM (inactive)

**Q.** What about the GI50 [13] of the same compound?
**A.** > 100 µM (inactive)

**Q.** What about the GI50 [14] of the same compound?
**A.** > 100 µM (inactive)

**Q.** What about the GI50 [15] of the same compound?
**A.** 13.5 µM (inactive)

**Q.** What about the GI50 [16] of the same compound?
**A.** > 10 µM (inactive)

**Q.** For `Cc1cc(C)c(C2[C@H]3C(=O)N(c4ccc(Cc5ccc(N6C(=O)[C@@H]7ON(c8ccccc8)C(c8c(C)cc(C)cc8C)[C@@H]7C6=O)cc5)cc4)C(=O)[C@H]3ON2c2ccccc2)c(C)c1` (some centres undefined), which GI50 [1] is on record?
**A.** > 100 µM (inactive)

**Q.** What about the GI50 [2] of the same compound?
**A.** > 100 µM (inactive)

**Q.** What about the GI50 [3] of the same compound?
**A.** > 100 µM (inactive)

**Q.** And the GI50 [4]?
**A.** > 100 µM (inactive)

**Q.** What about the GI50 [5] of the same compound?
**A.** > 100 µM (inactive)

**Q.** And the GI50 [6]?
**A.** 44.1 µM (inactive)

**Q.** And the GI50 [7]?
**A.** > 100 µM (inactive)

**Q.** And the GI50 [8]?
**A.** > 100 µM

**Q.** And the GI50 [9]?
**A.** > 100 µM (inactive)

**Q.** And the GI50 [10]?
**A.** > 100 µM (inactive)

**Q.** And the GI50 [11]?
**A.** > 100 µM (inactive)

**Q.** What about the GI50 [12] of the same compound?
**A.** > 100 µM (inactive)

**Q.** And the GI50 [13]?
**A.** > 100 µM (inactive)

**Q.** And the GI50 [14]?
**A.** > 100 µM (inactive)

**Q.** And the GI50 [15]?
**A.** > 100 µM (inactive)

**Q.** What about the GI50 [16] of the same compound?
**A.** > 100 µM (inactive)

**Q.** Which results are given for `CN1N=C2NCCNC3=NN(C)/C(=N/CC/N=C/1S2)S3`?
**A.** GI50 [3]: > 100 µM (inactive); GI50 [4]: > 100 µM (inactive); GI50 [6]: > 100 µM (inactive); GI50 [7]: > 100 µM (inactive); GI50 [8]: > 100 µM; GI50 [9]: > 100 µM (inactive); GI50 [10]: > 100 µM (inactive); GI50 [12]: > 100 µM (inactive); GI50 [13]: > 100 µM (inactive); GI50 [14]: > 100 µM (inactive); GI50 [15]: > 100 µM (inactive); GI50 [16]: > 100 µM (inactive)

**Q.** Which GI50 [2] does the source give for `NC(CCCNc1cccc(O)c1)C(=O)O` (centres undefined) here?
**A.** > 100 µM (inactive)

**Q.** What about the GI50 [3] of the same compound?
**A.** > 100 µM (inactive)

**Q.** What about the GI50 [4] of the same compound?
**A.** > 100 µM (inactive)

**Q.** And the GI50 [5]?
**A.** > 100 µM (inactive)

**Q.** What about the GI50 [6] of the same compound?
**A.** > 100 µM (inactive)

**Q.** What about the GI50 [7] of the same compound?
**A.** > 100 µM (inactive)

**Q.** What about the GI50 [8] of the same compound?
**A.** > 100 µM

**Q.** And the GI50 [9]?
**A.** > 100 µM (inactive)

**Q.** What about the GI50 [11] of the same compound?
**A.** > 100 µM (inactive)

**Q.** What about the GI50 [12] of the same compound?
**A.** > 100 µM (inactive)

**Q.** What about the GI50 [13] of the same compound?
**A.** > 100 µM (inactive)

**Q.** What about the GI50 [14] of the same compound?
**A.** > 100 µM (inactive)

**Q.** What about the GI50 [15] of the same compound?
**A.** > 100 µM (inactive)

**Q.** What about the GI50 [16] of the same compound?
**A.** > 100 µM (inactive)
